From ChEMBL document CHEMBL3351883, “β-Agarofurans and Sesquiterpene Pyridine Alkaloids from Maytenus spinosa” (J Nat Prod, 2014)
The source made the active and inactive calls. The rule behind the calls is not given here.

Test system: Human immunodeficiency virus 1
Experiment: Antiviral activity against HIV1 infected in human C8166 cells after 72 hrs by p24 antigen based ELISA
Assay type: functional
Settings: not given

For `CC(=O)OC[C@]12[C@H](OC(C)=O)[C@@H](OC(C)=O)[C@@H]3C(=O)[C@@]14O[C@@]3(C)COC(=O)c1cnccc1CCC(C)C(=O)O[C@@H]([C@H](OC(C)=O)[C@@H]2OC(C)=O)[C@]4(C)O` (stereo partly specified), which inhibition is on record?
The inhibition was “inactive”.

For `CC(=O)OC[C@]12[C@H](OC(C)=O)[C@@H](OC(C)=O)[C@@H]3[C@@H](OC(C)=O)[C@@]14O[C@@]3(C)COC(=O)c1cccnc1CCC(C)C(=O)O[C@@H]([C@H](OC(C)=O)[C@@H]2OC(C)=O)[C@]4(C)O` (stereo partly specified), which inhibition is on record?
The inhibition was “inactive”.

With `CC(=O)O[C@@H]1[C@@H]2[C@@H](OC(C)=O)[C@]3(OC2(C)C)[C@H](C)C[C@H](OC(C)=O)[C@H](OC(=O)c2ccccc2)[C@@]3(C)[C@@H]1OC(C)=O` as the molecule, how does the inhibition read?
The inhibition was “inactive”.

Which inhibition does the source give for `CC(=O)OC[C@]12[C@H](OC(C)=O)[C@@H](OC(C)=O)[C@@H]3[C@@H](OC(C)=O)[C@@]14O[C@@]3(C)COC(=O)c1cnccc1CCC(C)C(=O)O[C@@H]([C@H](OC(C)=O)[C@@H]2OC(C)=O)[C@]4(C)O` (stereo partly specified) here?
Its inhibition is “inactive”.

With `CC(=O)OC[C@]12[C@H](OC(C)=O)C(=O)[C@@H]3[C@@H](O)[C@@]14O[C@@]3(C)COC(=O)c1cnccc1CCC(C)C(=O)O[C@@H]([C@H](OC(C)=O)[C@@H]2OC(C)=O)[C@]4(C)O` (stereo partly specified) as the molecule, how does the inhibition read?
Its inhibition is “inactive”.

Which inhibition does the source give for `CC(=O)OC[C@]12[C@H](OC(C)=O)[C@@H](OC(C)=O)[C@@H]3[C@@H](O)[C@@]14O[C@@]3(C)COC(=O)c1cnccc1CCC(C)C(=O)O[C@@H]([C@H](OC(C)=O)[C@@H]2OC(C)=O)[C@]4(C)O` (stereo partly specified) here?
The inhibition was “inactive”.

Which inhibition does the source give for `CC(=O)O[C@@H]1[C@H]2[C@@H](OC(=O)c3ccccc3)[C@@H](OC(=O)c3ccccc3)[C@]3(C)[C@@H](OC(C)=O)[C@@H](OC(=O)c4ccccc4)C[C@@H](C)[C@@]13OC2(C)C` here?
The inhibition was “inactive”.

With `CC(=O)OC[C@]12[C@H](OC(C)=O)[C@H](OC(=O)c3ccccc3)[C@@H]3[C@@H](OC(C)=O)[C@]1(OC3(C)C)[C@H](C)C[C@H](OC(C)=O)[C@@H]2OC(C)=O` as the molecule, how does the inhibition read?
The inhibition was “inactive”.

Which inhibition does the source give for `CC(=O)O[C@@H]1[C@@H]2[C@@H](OC(C)=O)[C@]3(OC2(C)C)[C@H](C)C[C@H](O)[C@H](OC(C)=O)[C@@]3(C)[C@@H]1OC(=O)c1ccccc1` here?
The inhibition was “inactive”.

Which inhibition does the source give for `CC(=O)OC[C@]12[C@H](OC(=O)c3ccccc3)[C@@H](OC(C)=O)[C@@H]3[C@@H](OC(C)=O)[C@]1(OC3(C)C)[C@H](C)C[C@H](O)[C@@H]2OC(C)=O` here?
Its inhibition is “inactive”.

With `CC(=O)OC[C@]12[C@H](OC(C)=O)C(=O)[C@@H]3[C@@H](OC(C)=O)[C@@]14O[C@@]3(C)COC(=O)c1ncccc1C[C@H](C)[C@H](C)C(=O)O[C@H]([C@@H](OC(C)=O)[C@@H]2OC(C)=O)[C@H]4C` as the molecule, how does the inhibition read?
The inhibition was “inactive”.

Which inhibition does the source give for `CC(=O)OC[C@]12[C@H](OC(C)=O)[C@@H](OC(C)=O)[C@@H]3[C@@H](OC(=O)c4ccc(Br)cc4)[C@@]14O[C@@]3(C)COC(=O)c1cnccc1CCC(C)C(=O)O[C@@H]([C@H](OC(C)=O)[C@@H]2OC(C)=O)[C@]4(C)O` (stereo partly specified) here?
Its inhibition is “inactive”.

For `CCC(C)C(=O)O[C@@H]1[C@H](OC(C)=O)[C@@H]2[C@@H](OC(C)=O)[C@]3(OC2(C)C)[C@H](C)C[C@H](OC(C)=O)[C@H](OC(=O)c2ccccc2)[C@@]13C` (stereo partly specified), which inhibition is on record?
Its inhibition is “inactive”.

For `CC(=O)OC[C@]12[C@H](OC(C)=O)[C@@H](OC(C)=O)[C@@H]3[C@@H](OC(=O)N(C)C)[C@@]14O[C@@]3(C)COC(=O)c1cnccc1CCC(C)C(=O)O[C@@H]([C@H](OC(C)=O)[C@@H]2OC(C)=O)[C@]4(C)O` (stereo partly specified), which inhibition is on record?
Its inhibition is “inactive”.

Which “inhibition (INH)” value does the source give for `CC(=O)OC[C@]12[C@@H](OC(C)=O)[C@@H](OC(=O)c3ccccc3)[C@@H]3C[C@]1(OC3(C)C)[C@H](C)C[C@H](OC(C)=O)[C@@H]2OC(C)=O` here?
The value was 64.4%.

For `CC(=O)OC[C@]12[C@H](OC(C)=O)[C@@H](O)[C@@H]3[C@@H](O)[C@@]14O[C@@]3(C)COC(=O)c1cnccc1CCC(C)C(=O)O[C@@H]([C@H](OC(C)=O)[C@@H]2OC(C)=O)[C@]4(C)O` (stereo partly specified), which inhibition is on record?
The inhibition was “inactive”.

Which inhibition does the source give for `CC(=O)O[C@@H]1[C@H]2[C@@H](OC(=O)c3ccccc3)[C@@H](OC(=O)c3ccccc3)[C@]3(C)[C@@H](OC(C)=O)[C@@H](O)C[C@@H](C)[C@@]13OC2(C)C` here?
The inhibition was “inactive”.

For `CCCCCCCCCCCC(=O)O[C@@H]1[C@H]2[C@H](OC(C)=O)[C@@H](OC(C)=O)[C@]3(COC(C)=O)[C@@H](OC(C)=O)[C@@H](OC(C)=O)[C@@H]4OC(=O)C(C)CCc5ccncc5C(=O)OC[C@]2(C)O[C@]13[C@@]4(C)O` (stereo partly specified), which inhibition is on record?
Its inhibition is “inactive”.

With `CC(=O)OC[C@]12[C@H](OC(C)=O)[C@@H](OC(C)=O)[C@@H]3[C@@H](OC(=O)c4ccco4)[C@@]14O[C@@]3(C)COC(=O)c1cnccc1CCC(C)C(=O)O[C@@H]([C@H](OC(C)=O)[C@@H]2OC(C)=O)[C@]4(C)O` (stereo partly specified) as the molecule, how does the inhibition read?
The inhibition was “inactive”.

With `CCC(C)C(=O)O[C@@H]1[C@@H]2[C@@H](OC(C)=O)[C@]3(OC2(C)C)[C@H](C)C[C@H](O)[C@H](OC(C)=O)[C@@]3(COC(C)=O)[C@@H]1OC(=O)c1ccccc1` (stereo partly specified) as the molecule, how does the inhibition read?
The inhibition was “inactive”.

Which inhibition does the source give for `CC(=O)OC[C@]12[C@H](OC(C)=O)[C@@H](OC(C)=O)[C@@H]3[C@@H](OC(=O)c4cccnc4)[C@@]14O[C@@]3(C)COC(=O)c1cnccc1CCC(C)C(=O)O[C@@H]([C@H](OC(C)=O)[C@@H]2OC(C)=O)[C@]4(C)O` (stereo partly specified) here?
Its inhibition is “inactive”.

Which inhibition does the source give for `CC(=O)OC[C@@]12[C@H](OC(C)=O)[C@H](OC(C)=O)[C@@H]3[C@@H](OC(=O)c4ccccc4)[C@@]14O[C@@]3(C)COC(=O)c1cccnc1CC[C@H](C)C(=O)O[C@@H]([C@H](OC(C)=O)[C@@H]2OC(C)=O)[C@]4(C)O` here?
The inhibition was “inactive”.

With `CC(=O)OC[C@]12[C@H](OC(=O)c3ccccc3)[C@H](OC(=O)c3ccccc3)[C@@H]3[C@@H](OC(C)=O)[C@]1(OC3(C)C)[C@H](C)C[C@H](O)[C@@H]2OC(C)=O` as the molecule, how does the inhibition read?
Its inhibition is “inactive”.

Which inhibition does the source give for `CC(=O)OC[C@]12[C@H](OC(C)=O)[C@H](OC(C)=O)[C@@H]3[C@@H](OC(C)=O)[C@@]14O[C@@]3(C)COC(=O)c1cnccc1CCC(C)C(=O)O[C@@H]([C@H](OC(C)=O)[C@@H]2OC(C)=O)[C@]4(C)O` (stereo partly specified) here?
The inhibition was “inactive”.

For `CC(=O)OC[C@]12[C@H](OC(C)=O)[C@H](OC(C)=O)[C@@H]3[C@@H](OC(C)=O)[C@@]14O[C@@]3(C)COC(=O)c1cccnc1CCC(C)C(=O)O[C@@H]([C@H](OC(C)=O)[C@@H]2OC(C)=O)[C@]4(C)O` (stereo partly specified), which inhibition is on record?
The inhibition was “inactive”.

Test system: not listed separately
Experiment: Cytotoxicity against human C8166 cells assessed as cell viability by MTT assay
Assay type: cell-based
Settings: read-out: Activity

Which viability does the source give for `CC(=O)OC[C@]12[C@@H](OC(C)=O)[C@@H](OC(=O)c3ccccc3)[C@@H]3C[C@]1(OC3(C)C)[C@H](C)C[C@H](OC(C)=O)[C@@H]2OC(C)=O` here?
Its viability is 96%.
